According to ChEMBL document CHEMBL4396937, “Synthesis of new triazole fused imidazo[2,1-b]thiazole hybrids with emphasis on Staphylococcus aureus virulence factors” (Bioorg Med Chem Lett, 2019):
In brackets after ≈: the same amount, converted by molar mass. Activity calls are given as the source filed them. The calls are words filed in the database; no cut-off is given here.

What was measured:
Bacillus subtilis [1] = assay: Bactericidal activity against Bacillus subtilis MTCC 121 assessed as reduction in bacterial survival incubated for 24 hrs followed by transfer of microbial suspension to agar plates and measured at 24 hrs post transfer by agar well diffusion method; format: functional; conditions: MTCC 121, 24 h
Bacillus subtilis [2] = assay: Antibacterial activity against Bacillus subtilis MTCC 121 assessed as reduction in bacterial growth incubated for 24 hrs by agar well diffusion method; format: functional; conditions: MTCC 121, 24 h
Staphylococcus aureus [3] = assay: Bactericidal activity against Staphylococcus aureus MLS-16 MTCC 2940 assessed as reduction in bacterial survival incubated for 24 hrs followed by transfer of microbial suspension to agar plates and measured at 24 hrs post transfer by agar well diffusion method; format: functional; conditions: MLS-16 MTCC 2940, 24 h
Pseudomonas aeruginosa [4] = assay: Bactericidal activity against Pseudomonas aeruginosa MTCC 2453 assessed as reduction in bacterial survival incubated for 24 hrs followed by transfer of microbial suspension to agar plates and measured at 24 hrs post transfer by agar well diffusion method; format: functional; conditions: MTCC 2453, 24 h
Micrococcus luteus [5] = assay: Antibiofilm activity against Micrococcus luteus MTCC 2470 assessed as inhibition of biofilm formation by crystal violet staining-based microtitre plate assay; format: functional, organism-based
Staphylococcus aureus [6] = assay: Bactericidal activity against Staphylococcus aureus MTCC 96 assessed as reduction in bacterial survival incubated for 24 hrs followed by transfer of microbial suspension to agar plates and measured at 24 hrs post transfer by agar well diffusion method; format: functional; conditions: MTCC 96, 24 h
Candida albicans [7] = assay: Antifungal activity against Candida albicans MTCC 3017 assessed as reduction in fungal growth incubated for 24 hrs by agar well diffusion method; format: functional; conditions: MTCC 3017, 24 h
Staphylococcus aureus [8] = assay: Antibiofilm activity against Staphylococcus aureus MLS-16 MTCC 2940 assessed as inhibition of biofilm formation by crystal violet staining-based microtitre plate assay; format: functional, organism-based
Escherichia coli [9] = assay: Bactericidal activity against Escherichia coli MTCC 739 assessed as reduction in bacterial survival incubated for 24 hrs followed by transfer of microbial suspension to agar plates and measured at 24 hrs post transfer by agar well diffusion method; format: functional; conditions: MTCC 739, 24 h
Staphylococcus aureus [10] = assay: Antibacterial activity against Staphylococcus aureus MLS-16 MTCC 2940 assessed as reduction in bacterial growth incubated for 24 hrs by agar well diffusion method; format: functional; conditions: MLS-16 MTCC 2940, 24 h
Micrococcus luteus [11] = assay: Bactericidal activity against Micrococcus luteus MTCC 2470 assessed as reduction in bacterial survival incubated for 24 hrs followed by transfer of microbial suspension to agar plates and measured at 24 hrs post transfer by agar well diffusion method; format: functional; conditions: MTCC 2470, 24 h
Pseudomonas aeruginosa [12] = assay: Antibacterial activity against Pseudomonas aeruginosa MTCC 2453 assessed as reduction in bacterial growth incubated for 24 hrs by agar well diffusion method; format: functional; conditions: MTCC 2453, 24 h
Raoultella planticola [13] = assay: Antibiofilm activity against Klebsiella planticola MTCC 530 assessed as inhibition of biofilm formation by crystal violet staining-based microtitre plate assay; format: functional, organism-based
Bacillus subtilis [14] = assay: Antibiofilm activity against Bacillus subtilis MTCC 121 assessed as inhibition of biofilm formation by crystal violet staining-based microtitre plate assay; format: functional, organism-based
Escherichia coli [15] = assay: Antibacterial activity against Escherichia coli MTCC 739 assessed as reduction in bacterial growth incubated for 24 hrs by agar well diffusion method; format: functional; conditions: MTCC 739, 24 h
Raoultella planticola [16] = assay: Bactericidal activity against Klebsiella planticola MTCC 530 assessed as reduction in bacterial survival incubated for 24 hrs followed by transfer of microbial suspension to agar plates and measured at 24 hrs post transfer by agar well diffusion method; format: functional; conditions: MTCC 530, 24 h
Pseudomonas aeruginosa [17] = assay: Antibiofilm activity against Pseudomonas aeruginosa MTCC 2453 assessed as inhibition of biofilm formation by crystal violet staining-based microtitre plate assay; format: functional, organism-based
Staphylococcus aureus [18] = assay: Antibacterial activity against Staphylococcus aureus MTCC 96 assessed as reduction in bacterial growth incubated for 24 hrs by agar well diffusion method; format: functional; conditions: MTCC 96, 24 h
Candida albicans [19] = assay: Fungicidal activity against Candida albicans MTCC 3017 assessed as reduction in fungal survival incubated for 24 hrs followed by transfer of microbial suspension to agar plates and measured at 24 hrs post transfer by agar well diffusion method; format: functional; conditions: MTCC 3017, 24 h
Raoultella planticola [20] = assay: Antibacterial activity against Klebsiella planticola MTCC 530 assessed as reduction in bacterial growth incubated for 24 hrs by agar well diffusion method; format: functional; conditions: MTCC 530, 24 h
Staphylococcus aureus [21] = assay: Antibiofilm activity against Staphylococcus aureus MTCC 96 assessed as inhibition of biofilm formation by crystal violet staining-based microtitre plate assay; format: functional, organism-based
Escherichia coli [22] = assay: Antibiofilm activity against Escherichia coli MTCC 739 assessed as inhibition of biofilm formation by crystal violet staining-based microtitre plate assay; format: functional, organism-based
Micrococcus luteus [23] = assay: Antibacterial activity against Micrococcus luteus MTCC 2470 assessed as reduction in bacterial growth incubated for 24 hrs by agar well diffusion method; format: functional; conditions: MTCC 2470, 24 h
MRC5 = assay: Cytotoxicity against human MRC5 cells assessed as reduction in cell viability incubated for 48 hrs by MTT assay; format: cell-based; conditions: MRC5, 48 h
Staphylococcus aureus [24] = assay: Antibiofilm activity against Staphylococcus aureus MTCC 96 assessed as inhibition of biofilm formation incubated for 48 hrs in presence of Escherichia coli MTCC 739 by FE-SEM analysis; format: functional, organism-based; conditions: MTCC 96, 48 h
Escherichia coli [25] = assay: Antibiofilm activity against Escherichia coli MTCC 739 assessed as disruption of biofilm matrix with individual cell lysis at bactericidal MBC incubated for 48 hrs in presence of Staphylococcus aureus MTCC 96 by FE-SEM analysis; format: functional, organism-based
Escherichia coli [26] = assay: Antibiofilm activity against Escherichia coli MTCC 739 assessed as cell lysis with damaged membrane at bactericidal MBC incubated for 48 hrs by FE-SEM analysis; format: functional, organism-based
Escherichia coli [27] = assay: Antibiofilm activity against Escherichia coli MTCC 739 assessed as inhibition of biofilm formation incubated for 48 hrs in presence of Staphylococcus aureus MTCC 96 by FE-SEM analysis; format: functional, organism-based; conditions: MTCC 739, 48 h
Staphylococcus aureus [28] = assay: Antibiofilm activity against Staphylococcus aureus MTCC 96 assessed as disruption and cell damage at bactericidal MBC incubated for 48 hrs by FE-SEM analysis; format: functional, organism-based
Staphylococcus aureus [29] = assay: Antibiofilm activity against Staphylococcus aureus MTCC 96 assessed as disruption of biofilm matrix with individual cell lysis at bactericidal MBC incubated for 48 hrs in presence of Escherichia coli MTCC 739 by FE-SEM analysis; format: functional, organism-based

MIC (Bacillus subtilis [2]) [µg/mL] | IC50 (Micrococcus luteus [5]) [µg/mL] | MIC (Candida albicans [7]) [µg/mL] | IC50 (Staphylococcus aureus [8]) [µg/mL] | MIC (Staphylococcus aureus [10]) [µg/mL] | MIC (Pseudomonas aeruginosa [12]) [µg/mL] | IC50 (Bacillus subtilis [14]) [µg/mL] | MIC (Escherichia coli [15]) [µg/mL] | MIC (Staphylococcus aureus [18]) [µg/mL] | MIC (Micrococcus luteus [23]) [µg/mL] | SMILES | MBC (Bacillus subtilis [1]) [µg/mL] | MBC (Staphylococcus aureus [3]) [µg/mL] | MBC (Pseudomonas aeruginosa [4]) [µg/mL] | MBC (Staphylococcus aureus [6]) [µg/mL] | MBC (Escherichia coli [9]) [µg/mL] | MBC (Micrococcus luteus [11]) [µg/mL] | IC50 (Raoultella planticola [13]) [µg/mL] | MBC (Raoultella planticola [16]) [µg/mL] | MFC (Candida albicans [19]) [µg/mL] | MIC (Raoultella planticola [20]) [µg/mL] | also measured
3.9 (≈ 8.33 µM) | 12.3 (≈ 26.3 µM) | 7.8 (≈ 16.7 µM) | 12.8 (≈ 27.3 µM) | 1.9 (≈ 4.06 µM) | 3.9 (≈ 8.33 µM) | 13.5 (≈ 28.8 µM) | 1.9 (≈ 4.06 µM) | 1.9 (≈ 4.06 µM) | 3.9 (≈ 8.33 µM) | O=C(c1cn(-c2ccc(F)cc2Br)nn1)c1c(-c2ccccc2)nc2sccn12 | 7.8 (≈ 16.7 µM) | 3.9 (≈ 8.33 µM) | 7.8 (≈ 16.7 µM) | 3.9 (≈ 8.33 µM) | 3.9 (≈ 8.33 µM) | 7.8 (≈ 16.7 µM) | 17.3 (≈ 36.9 µM) | 7.8 (≈ 16.7 µM) | 15.6 (≈ 33.3 µM) | 3.9 (≈ 8.33 µM) | IC50 (Pseudomonas aeruginosa [17]): 18.2 µg/mL (≈ 38.9 µM); IC50 (Staphylococcus aureus [21]): 13.5 µg/mL (≈ 28.8 µM); IC50 (Escherichia coli [22]): 18.2 µg/mL (≈ 38.9 µM); IC50 (MRC5): 48.2 µg/mL (≈ 103 µM)
3.9 (≈ 9.61 µM) | 11.2 (≈ 27.7 µM) | 7.8 (≈ 19.2 µM) | 10.6 (≈ 26.2 µM) | 1.9 (≈ 4.68 µM) | 3.9 (≈ 9.61 µM) | 11.4 (≈ 28.1 µM) | 1.9 (≈ 4.68 µM) | 1.9 (≈ 4.68 µM) | 3.9 (≈ 9.61 µM) | O=C(c1cn(-c2ccc(Cl)cc2)nn1)c1c(-c2ccccc2)nc2sccn12 | 7.8 (≈ 19.2 µM) | 3.9 (≈ 9.61 µM) | 7.8 (≈ 19.2 µM) | 3.9 (≈ 9.61 µM) | 3.9 (≈ 9.61 µM) | 7.8 (≈ 19.2 µM) | 14.6 (≈ 36 µM) | 7.8 (≈ 19.2 µM) | 15.6 (≈ 38.4 µM) | 3.9 (≈ 9.61 µM) | IC50 (Staphylococcus aureus [24]): 14.3 µg/mL; Activity (Escherichia coli [25]): Active; Activity (Escherichia coli [26]): Active; IC50 (Escherichia coli [27]): 14.3 µg/mL; Activity (Staphylococcus aureus [28]): Active; Activity (Staphylococcus aureus [29]): Active; IC50 (Pseudomonas aeruginosa [17]): 14.2 µg/mL (≈ 35 µM); IC50 (Staphylococcus aureus [21]): 9.8 µg/mL (≈ 24.1 µM); IC50 (Escherichia coli [22]): 10.3 µg/mL (≈ 25.4 µM); IC50 (MRC5): 36.1 µg/mL (≈ 88.9 µM)
15.6 (≈ 32.9 µM) | – | 15.6 (≈ 32.9 µM) | – | > 125 | > 125 | – | > 125 | > 125 | > 125 | O=C(c1cn(-c2ccc(C(F)(F)F)cc2)nn1)c1c(-c2ccc(Cl)cc2)nc2sccn12 | 31.2 (≈ 65.8 µM) | > 125 | > 125 | > 125 | > 125 | > 125 | – | > 125 | 15.6 (≈ 32.9 µM) | > 125 | –
3.9 (≈ 9.71 µM) | – | 15.6 (≈ 38.9 µM) | – | 7.8 (≈ 19.4 µM) | > 125 | – | > 125 | 7.8 (≈ 19.4 µM) | 3.9 (≈ 9.71 µM) | COc1ccc(-n2cc(C(=O)c3c(-c4ccccc4)nc4sccn34)nn2)cc1 | 7.8 (≈ 19.4 µM) | 15.6 (≈ 38.9 µM) | > 125 | 15.6 (≈ 38.9 µM) | > 125 | 7.8 (≈ 19.4 µM) | – | 31.2 (≈ 77.7 µM) | 31.2 (≈ 77.7 µM) | 15.6 (≈ 38.9 µM) | –
